Experimental findings from patent US11957687B2 (REGENERON PHARMACEUTICALS, INC., priority 2019, dated 2024) are described below.

Molecules are shown by their SMILES.

Holding throughout (format): biochemical
For one experiment, the target named is HSD17B2 (Homo sapiens (Human), UniProt P37059). In words: HSD17B2 enzymatic blocking assay. The settings on record: 1.8 μM Estradiol, 650 μM NAD; read-out: Inhibition of HSD17B2 IC50. The method, then:
To screen compounds of the disclosure for their ability to block HSD17B2 function, an enzymatic blocking assay was performed. For the assay, HSD17B2 activity was measured by detecting NADH formation from oxidation of Estradiol using a NADH Glo luminescence assay (Promega, #Cat. No. G9062). Compounds of the disclosure were evaluated in a dose titration assay where the compounds were titrated at 10-point dose curve using an Echo-555 liquid handling dispenser. HSD17B2 (SEQ ID NO: 3, expressed in mammalian cells) was added at a final concentration of 2 ng/μL in a buffer containing 50 mM Tris-HCl, pH 7.5, Pluronic F-127 0.05%, Tween20 0.01%, BSA 0.01% into a low volume white 384-well assay plate. Compounds were incubated with the enzyme for 15 min at 20° C. The assay reaction was then initiated by addition of 1.8 μM Estradiol substrate (Sigma, catalog #E2758-250MG, CAS: 50-28-2) and 650 μM NAD co-factor, and the reaction mixture was incubated for 45 min at 20° C. DMSO at a concentration of 0.5% was used as a negative control and a ‘no substrate’ control was used a positive control in the assay. Detection reagent was then added as per manufacturer's instructions, and the plate was subsequently incubated in the dark for 1 hour at room temperature, NADH generated was detected in the luminescence mode on the Envision Perkin Elmer plate reader. The IC50 values were determined using Dotmatics analysis software.

For another experiment, the target named is HSD17B1 (Homo sapiens (Human), UniProt P14061). Put plainly: HSD17B1 enzymatic blocking assay. The settings on record: 25 μM Estradiol, 500 μM NAD; read-out: Inhibition of HSD17B1 IC50. The method, then: To screen compounds of the disclosure for their ability to block HSD17B1 function, an enzymatic blocking assay was performed. For the assay, HSD17B1 activity was measured by detecting NADH formation from oxidation of Estradiol using a NADH Glo luminescence assay (Promega, #Cat. No. G9062). […] Compounds were incubated with the enzyme for 30 minutes at room temperature. […] DMSO at a concentration of 0.5% was used as a negative control and a ‘no substrate’ control was used a positive control in the assay. Detection reagent was then added as per manufacturer's instructions, and the plate was subsequently incubated in the dark for 1 hour at room temperature, NADH generated was detected in the luminescence mode on the Envision Perkin Elmer plate reader. The IC50 values were determined using Dotmatics analysis software.
Sequence of HSD17B1 (P14061 other isoform, or with tags, fused parts or gaps): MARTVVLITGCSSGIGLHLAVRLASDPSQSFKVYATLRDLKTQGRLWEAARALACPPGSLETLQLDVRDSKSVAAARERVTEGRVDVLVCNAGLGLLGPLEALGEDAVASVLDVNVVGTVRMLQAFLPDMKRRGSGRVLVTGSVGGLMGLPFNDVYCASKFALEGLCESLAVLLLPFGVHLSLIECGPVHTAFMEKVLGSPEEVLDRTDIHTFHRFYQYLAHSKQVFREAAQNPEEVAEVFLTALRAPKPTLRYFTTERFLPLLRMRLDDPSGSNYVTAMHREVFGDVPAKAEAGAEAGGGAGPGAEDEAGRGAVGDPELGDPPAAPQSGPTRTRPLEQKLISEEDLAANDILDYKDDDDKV

The next experiment addresses HSD17B13 (Homo sapiens (Human), UniProt Q7Z5P4). Put plainly: HSD17B13 enzymatic inhibition assay (150 nM or 50 nM HSD17B13). The settings on record: 50 nM HSD17B13; read-out: Inhibition of 50 nM of HSD17B13 IC50.

Sequence of HSD17B13 (Q7Z5P4 other isoform, or with tags, fused parts or gaps): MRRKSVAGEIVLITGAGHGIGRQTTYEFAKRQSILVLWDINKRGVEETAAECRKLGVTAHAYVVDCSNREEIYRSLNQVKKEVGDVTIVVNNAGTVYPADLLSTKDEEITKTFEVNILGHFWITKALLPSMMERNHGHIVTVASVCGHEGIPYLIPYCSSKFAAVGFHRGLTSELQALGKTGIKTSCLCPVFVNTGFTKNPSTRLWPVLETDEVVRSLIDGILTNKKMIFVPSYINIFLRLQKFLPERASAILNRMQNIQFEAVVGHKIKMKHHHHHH
Sequence of HSD17B2 (P37059 other isoform, or with tags, fused parts or gaps): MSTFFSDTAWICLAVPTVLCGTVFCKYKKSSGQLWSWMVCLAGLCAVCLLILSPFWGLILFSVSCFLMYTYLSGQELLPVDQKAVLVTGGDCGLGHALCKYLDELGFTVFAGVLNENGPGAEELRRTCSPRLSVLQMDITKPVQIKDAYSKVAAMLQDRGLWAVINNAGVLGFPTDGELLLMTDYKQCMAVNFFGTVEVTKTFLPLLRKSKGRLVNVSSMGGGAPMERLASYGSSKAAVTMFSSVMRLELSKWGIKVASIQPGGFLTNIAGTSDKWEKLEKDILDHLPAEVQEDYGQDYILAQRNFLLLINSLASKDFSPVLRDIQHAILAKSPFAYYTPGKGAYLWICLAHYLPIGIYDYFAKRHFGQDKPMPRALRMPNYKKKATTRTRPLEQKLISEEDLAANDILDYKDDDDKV

Regarding `CCc1sc2cc(C)ccc2c1NC(=O)c1ccc(C(F)(F)F)[nH]c1=O` [Compound 309, N-(2-ethyl-6-methylbenzo[b]thiophen-3-yl)-2-oxo-6-(trifluoromethyl)-1,2-dihydropyridine-3-carboxamide], the concentration for half-maximal inhibition (IC50) (commonly the concentration that gives 50% inhibition) on HSD17B2 came to 22.6 µM; on HSD17B1 it was 14.3 µM; at HSD17B13, 0.08 µM.

For the compound `COc1ccc2c(c1)Sc1cccnc1C2NC(=O)c1ccc(C(F)(F)F)[nH]c1=O` (stereo not drawn) [Compound 321, N-(7-methoxy-10H-thiochromeno[3,2-b]pyridin-10-yl)-2-oxo-6-(trifluoromethyl)-1,2-dihydropyridine-3-carboxamide], the results for the IC50 at HSD17B2, at HSD17B1 and at HSD17B13 were 8.32 µM, above 30 µM and 0.22 µM, respectively.

As for `COc1ccc2c(c1)Sc1cnccc1C2NC(=O)c1ccc(C(F)(F)F)[nH]c1=O` (stereo not drawn) [Compound 323, N-(8-methoxy-5H-thiochromeno[2,3-c]pyridin-5-yl)-2-oxo-6-(trifluoromethyl)-1,2-dihydropyridine-3-carboxamide], the results for the IC50 on HSD17B2, on HSD17B1 and at HSD17B13 were 35.5 µM, above 30 µM and 0.22 µM, respectively.

On to `Cc1cnc2c(c1)Oc1ccccc1C2NC(=O)c1ccc(C(F)(F)F)[nH]c1=O` (stereo not drawn) [Compound 324, N-(3-methyl-10H-chromeno[3,2-b]pyridin-10-yl)-2-oxo-6-(trifluoromethyl)-1,2-dihydropyridine-3-carboxamide], for which the half-maximal inhibitory concentration (IC50) was 56.4 µM on HSD17B2, above 30 µM at HSD17B1 and 0.04 µM at HSD17B13.

For the compound `Cc1ccc2c(c1)Oc1cnccc1C2NC(=O)c1ccc(C(F)(F)F)[nH]c1=O` (stereo not drawn) [Compound 328, N-(8-methyl-5H-chromeno[2,3-c]pyridin-5-yl)-2-oxo-6-(trifluoromethyl)-1,2-dihydropyridine-3-carboxamide], the IC50 on HSD17B2 was above 100 µM; at HSD17B1, 4.16 µM; at HSD17B13 it was 0.11 µM.

With `Cc1ccc2c(c1)Oc1ccncc1C2NC(=O)c1ccc(C(F)(F)F)[nH]c1=O` (stereo not drawn) [Compound 330, N-(7-methyl-10H-chromeno[3,2-c]pyridin-10-yl)-2-oxo-6-(trifluoromethyl)-1,2-dihydropyridine-3-carboxamide], the half-maximal inhibitory concentration (IC50) was 22.1 µM on HSD17B2, above 30 µM on HSD17B1 and 0.08 µM on HSD17B13.

On to `CCC[C@@H]1Oc2ccc(C)cc2[C@@H]1NC(=O)c1ccc(C(F)(F)F)[nH]c1=O` [Compound 354, N-((2S,3S)-5-methyl-2-propyl-2,3-dihydrobenzofuran-3-yl)-2-oxo-6-(trifluoromethyl)-1,2-dihydropyridine-3-carboxamide], for which the IC50 at HSD17B2 is 29.3 µM; on HSD17B1, above 30 µM; at HSD17B13, 0.51 µM.

As to `CCC1Oc2ccc(C)cc2C1NC(=O)c1ccc(C(F)(F)F)[nH]c1=O` (stereo not drawn) [Compound 355, N-(2-ethyl-5-methyl-2,3-dihydrobenzofuran-3-yl)-2-oxo-6-(trifluoromethyl)-1,2-dihydropyridine-3-carboxamide], the concentration for half-maximal inhibition (IC50) on HSD17B2 is 37.6 µM; on HSD17B1, above 30 µM; at HSD17B13, 0.52 µM.

For the compound `Cc1ccc2c(c1)OC(C)CC2NC(=O)c1ccc(C(F)(F)F)[nH]c1=O` (stereo not drawn) [Compound 405, N-(2,7-dimethylchroman-4-yl)-2-oxo-6-(trifluoromethyl)-1,2-dihydropyridine-3-carboxamide], the 50% inhibitory concentration (IC50) on HSD17B2 was above 100 µM; on HSD17B1, above 30 µM; on HSD17B13, 0.16 µM.

As for `CCCC1CC(NC(=O)c2ccc(C(F)(F)F)[nH]c2=O)c2ccc(C)cc2O1` (stereo not drawn) [Compound 406, N-(7-methyl-2-propylchroman-4-yl)-2-oxo-6-(trifluoromethyl)-1,2-dihydropyridine-3-carboxamide], the 50% inhibitory concentration (IC50) on HSD17B2 was found to be 54 µM; on HSD17B1, 28.8 µM; at HSD17B13 it was 0.23 µM.

As to `CCC1CC(NC(=O)c2ccc(C(F)(F)F)[nH]c2=O)c2ccc(C)cc2O1` (stereo not drawn) [Compound 407, N-(2-ethyl-7-methylchroman-4-yl)-2-oxo-6-(trifluoromethyl)-1,2-dihydropyridine-3-carboxamide], the concentration for half-maximal inhibition (IC50) at HSD17B2 stood at 69.2 µM; at HSD17B1 it was 12.5 µM; on HSD17B13, 0.16 µM.

Turning to `Cc1ccc2c(c1)OC1CCCCC1C2NC(=O)c1ccc(C(F)(F)F)[nH]c1=O` (stereo not drawn) [Compound 409, N-(6-methyl-2,3,4,4a,9,9a-hexahydro-1H-xanthen-9-yl)-2-oxo-6-(trifluoromethyl)-1,2-dihydropyridine-3-carboxamide], the IC50 at HSD17B2 was 29.7 µM; at HSD17B1, above 30 µM; on HSD17B13, 0.04 µM.

`O=C(NC1c2ccccc2-c2ccc(C(F)(F)F)cc21)c1ccc(C(F)(F)F)[nH]c1=O` (stereo not drawn) [Compound 414, 2-oxo-6-(trifluoromethyl)-N-(2-(trifluoromethyl)-9H-fluoren-9-yl)-1,2-dihydropyridine-3-carboxamide]: the 50% inhibitory concentration (IC50) at HSD17B2 stood at 17.5 µM; at HSD17B1, 8.59 µM; at HSD17B13 it was 0.25 µM.

For `COc1ccc2c(c1)C(NC(=O)c1ccc(C(F)(F)F)[nH]c1=O)c1ccccc1-2` (stereo not drawn) [Compound 416, N-(2-methoxy-9H-fluoren-9-yl)-2-oxo-6-(trifluoromethyl)-1,2-dihydropyridine-3-carboxamide], the figures for the half-maximal inhibitory concentration (IC50) on HSD17B2, at HSD17B1 and on HSD17B13 were 14.8 µM, 20 µM and 0.07 µM, respectively.

Turning to `Cc1ccc2c(c1)C(NC(=O)c1ccc(C(F)(F)F)[nH]c1=O)c1ccccc1-2` (stereo not drawn) [Compound 417, N-(2-methyl-9H-fluoren-9-yl)-2-oxo-6-(trifluoromethyl)-1,2-dihydropyridine-3-carboxamide], the IC50 was 47.9 µM on HSD17B2, 13.5 µM at HSD17B1 and 0.1 µM at HSD17B13.

As for `CNc1cccc(C(NC(=O)c2ccc(C(F)(F)F)[nH]c2=O)c2ccc(C)cc2)c1` (stereo not drawn) [Compound 419, N-((3-(methylamino)phenyl)(p-tolyl)methyl)-2-oxo-6-(trifluoromethyl)-1,2-dihydropyridine-3-carboxamide], the IC50 at HSD17B2 is above 100 µM; on HSD17B1 it was above 30 µM; on HSD17B13, 0.63 µM.

Consider `Cc1ccc(C(NC(=O)c2ccc(C(F)(F)F)[nH]c2=O)C2CCCCC2)cc1` (stereo not drawn) [Compound 421, N-(cyclohexyl(p-tolyl)methyl)-2-oxo-6-(trifluoromethyl)-1,2-dihydropyridine-3-carboxamide], for which the values for the half-inhibitory concentration (IC50) on HSD17B2, at HSD17B1 and at HSD17B13 were 11.3 µM, 25.1 µM and 0.36 µM, respectively.

`Cc1ccc(C(CC2CCCCC2)NC(=O)c2ccc(C(F)(F)F)[nH]c2=O)cc1` (stereo not drawn) [Compound 422, N-(2-cyclohexyl-1-(p-tolyl)ethyl)-2-oxo-6-(trifluoromethyl)-1,2-dihydropyridine-3-carboxamide]: the half-inhibitory concentration (IC50) on HSD17B2 was found to be 17.3 µM; at HSD17B1, 10.7 µM; at HSD17B13, 0.16 µM.

`Cc1ccc2c(c1)Oc1cc(C)ccc1C2NC(=O)c1cc(N2CCN(C)CC2)c(C(F)(F)F)[nH]c1=O` [Compound 435, N-(3,6-dimethyl-9H-xanthen-9-yl)-5-(4-methylpiperazin-1-yl)-2-oxo-6-(trifluoromethyl)-1,2-dihydropyridine-3-carboxamide]: the half-maximal inhibitory concentration (IC50) on HSD17B2 is 59.4 µM; on HSD17B1, 23.5 µM; at HSD17B13 it was 0.11 µM.
